Laboratory results from ChEMBL document CHEMBL1909046, “DrugMatrix in vitro pharmacology data”.

Assays:
[1] = target: Receptor tyrosine-protein kinase erbB-2 (Homo sapiens, UniProt P04626); test: biochemical; type: cell-based, Insect cells;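 note: inhibition of HER2 kinase enzyme activity, measured with Poly(Glu:Tyr) as the phosphorylation substrate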
[2] = target: T1, C-C chemokine receptor type 4 (Homo sapiens, UniProt P51679); type: cell membranes, Chem-1, Membrane; settings: chem-1
T1 sequence (P51679 whole entry): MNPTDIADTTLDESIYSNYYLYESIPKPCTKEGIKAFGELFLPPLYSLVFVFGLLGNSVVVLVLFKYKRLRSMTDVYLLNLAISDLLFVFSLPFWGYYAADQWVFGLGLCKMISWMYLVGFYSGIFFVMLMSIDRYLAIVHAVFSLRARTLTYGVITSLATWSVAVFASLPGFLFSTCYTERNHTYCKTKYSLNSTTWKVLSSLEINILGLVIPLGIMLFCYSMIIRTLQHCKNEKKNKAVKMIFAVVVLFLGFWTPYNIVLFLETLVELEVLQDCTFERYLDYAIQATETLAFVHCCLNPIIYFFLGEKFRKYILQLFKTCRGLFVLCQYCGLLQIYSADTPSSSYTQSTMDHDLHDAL

[3] = target: T2, Alpha-2A adrenergic receptor (Homo sapiens, UniProt P08913); type: cell membranes, Sf9, Membrane
T2 sequence (P08913 whole entry): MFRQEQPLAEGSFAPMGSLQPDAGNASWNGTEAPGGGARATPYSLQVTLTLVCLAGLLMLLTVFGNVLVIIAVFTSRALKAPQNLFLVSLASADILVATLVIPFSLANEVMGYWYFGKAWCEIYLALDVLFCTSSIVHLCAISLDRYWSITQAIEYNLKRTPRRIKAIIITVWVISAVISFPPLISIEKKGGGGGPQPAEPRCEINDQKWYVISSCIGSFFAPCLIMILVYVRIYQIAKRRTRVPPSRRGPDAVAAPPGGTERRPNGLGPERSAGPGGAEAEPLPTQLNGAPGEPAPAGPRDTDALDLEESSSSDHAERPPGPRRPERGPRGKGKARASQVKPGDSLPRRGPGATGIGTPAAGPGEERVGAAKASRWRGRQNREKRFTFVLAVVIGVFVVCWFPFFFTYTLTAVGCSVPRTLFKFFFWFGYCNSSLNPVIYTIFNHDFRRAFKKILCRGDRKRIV

[4] = target: 5-hydroxytryptamine receptor 1B (Rattus norvegicus, UniProt P28564); type: cell membranes, Wistar, Cerebral cortex, Membrane
Note: in other assays of this panel Not Active means under 50% inhibition at 10 µM.

5-hydroxytryptamine receptor 1B, sequence (P28564 whole entry): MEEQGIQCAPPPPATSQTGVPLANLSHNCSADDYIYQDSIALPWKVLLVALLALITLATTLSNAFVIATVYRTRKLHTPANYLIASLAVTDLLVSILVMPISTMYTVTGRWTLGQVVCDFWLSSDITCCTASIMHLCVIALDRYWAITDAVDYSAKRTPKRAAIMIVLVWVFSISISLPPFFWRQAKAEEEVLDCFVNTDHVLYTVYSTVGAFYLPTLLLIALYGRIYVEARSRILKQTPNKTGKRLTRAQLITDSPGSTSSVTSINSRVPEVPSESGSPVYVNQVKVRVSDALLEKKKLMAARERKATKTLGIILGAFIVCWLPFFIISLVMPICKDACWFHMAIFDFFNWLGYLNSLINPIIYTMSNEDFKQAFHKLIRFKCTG
Receptor tyrosine-protein kinase erbB-2, sequence (P04626 whole entry): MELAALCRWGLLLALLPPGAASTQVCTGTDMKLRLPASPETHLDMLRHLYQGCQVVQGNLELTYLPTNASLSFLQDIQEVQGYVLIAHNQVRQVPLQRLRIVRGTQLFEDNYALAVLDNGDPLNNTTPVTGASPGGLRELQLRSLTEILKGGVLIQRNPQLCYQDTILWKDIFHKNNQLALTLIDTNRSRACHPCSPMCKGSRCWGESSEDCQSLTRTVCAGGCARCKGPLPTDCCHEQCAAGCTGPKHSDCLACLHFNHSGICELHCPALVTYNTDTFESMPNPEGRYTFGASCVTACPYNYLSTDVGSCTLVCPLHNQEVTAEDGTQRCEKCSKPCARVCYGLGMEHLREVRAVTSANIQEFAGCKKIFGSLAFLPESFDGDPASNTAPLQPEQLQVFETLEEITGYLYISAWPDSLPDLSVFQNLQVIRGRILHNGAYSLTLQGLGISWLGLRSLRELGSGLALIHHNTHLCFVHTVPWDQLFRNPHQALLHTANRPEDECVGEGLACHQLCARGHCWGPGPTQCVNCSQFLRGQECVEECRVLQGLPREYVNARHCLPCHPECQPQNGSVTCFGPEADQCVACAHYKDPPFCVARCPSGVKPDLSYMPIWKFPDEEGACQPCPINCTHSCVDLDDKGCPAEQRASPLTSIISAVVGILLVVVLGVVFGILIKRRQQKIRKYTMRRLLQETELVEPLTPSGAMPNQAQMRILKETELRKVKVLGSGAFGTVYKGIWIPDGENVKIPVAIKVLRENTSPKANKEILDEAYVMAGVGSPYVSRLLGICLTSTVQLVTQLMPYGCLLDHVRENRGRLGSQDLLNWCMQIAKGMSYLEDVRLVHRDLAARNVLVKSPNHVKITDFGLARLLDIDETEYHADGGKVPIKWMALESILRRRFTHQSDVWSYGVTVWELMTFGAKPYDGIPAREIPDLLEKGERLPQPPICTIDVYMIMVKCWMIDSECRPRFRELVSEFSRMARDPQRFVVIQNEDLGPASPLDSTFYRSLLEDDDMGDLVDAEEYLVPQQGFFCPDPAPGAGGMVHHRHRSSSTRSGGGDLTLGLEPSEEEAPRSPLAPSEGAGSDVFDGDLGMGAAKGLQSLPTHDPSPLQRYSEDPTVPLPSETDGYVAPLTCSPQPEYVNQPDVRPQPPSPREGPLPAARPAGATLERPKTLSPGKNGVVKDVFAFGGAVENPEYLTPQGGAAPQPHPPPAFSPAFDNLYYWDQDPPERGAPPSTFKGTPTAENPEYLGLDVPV

SMILES	IC50 ([1]; insect cells)	IC50 [2]	IC50 ([3]; sf9)	IC50 [4]	IC50 ([1]; read-out: IC50) [µM]	IC50 ([4]; read-out: IC50) [µM]	Ki ([4]; read-out: Ki) [nM]	IC50 ([3]; read-out: IC50) [nM]	Ki ([3]; read-out: Ki) [nM]
c1ccc(Nc2ccc(Nc3ccccc3)cc2)cc1	Not Active	Not Active	Not Active	Not Active					
COc1cc2c3cc1Oc1cc(ccc1O)C[C@@H]1c4c(cc(OC)c(O)c4Oc4ccc(cc4)C[C@@H]3N(C)CC2)CC[N+]1(C)C.[Cl-]	Not Active	Not Active	Not Active	Not Active					
O=C1CC[C@@H](N2C(=O)c3ccccc3C2=O)C(=O)N1	Not Active	Not Active	Not Active	Not Active					
Cc1ccc2cc3c(ccc4ccccc43)c3c2c1CC3 [3-METHYLCHOLANTHRENE]	Not Active	Not Active	Not Active	Not Active					
CC[C@@]1(O)C[C@H](O[C@H]2C[C@H](N(C)C)[C@H](O[C@H]3C[C@H](O)[C@H](O[C@H]4CCC(=O)[C@H](C)O4)[C@H](C)O3)[C@H](C)O2)c2c(cc3c(c2O)C(=O)c2c(O)cccc2C3=O)[C@H]1C(=O)OC [ACLARUBICIN]	Not Active	Not Active	Not Active	Not Active					
Nc1nc2c(ncn2COCCO)c(=O)[nH]1 [ACYCLOVIR]	Not Active	Not Active	Not Active	Not Active					
Cc1c(C)c2c(c(C)c1O)CC[C@@](C)(CCC[C@H](C)CCC[C@H](C)CCCC(C)C)O2 [ALPHA-TOCOPHEROL]	Not Active	Not Active	Not Active	Not Active					
CN(C)c1nc(N(C)C)nc(N(C)C)n1 [ALTRETAMINE]	Not Active	Not Active	Not Active	Not Active					
NCCCCCC(=O)O [AMINOCAPROIC ACID]	Not Active	Not Active	Not Active	Not Active					
Cc1ccc(/N=C/N(C)/C=N/c2ccc(C)cc2C)c(C)c1 [AMITRAZ]	Not Active	Not Active		Not Active					
CCOC(=O)C1=C(COCCN)NC(C)=C(C(=O)OC)C1c1ccccc1Cl (centres undefined) [AMLODIPINE]	Not Active	Not Active		Not Active					
CNCCc1ccccn1 [BETAHISTINE]	Not Active	Not Active	Not Active	Not Active					
CC(C)C(Br)C(=O)NC(N)=O (centres undefined) [BROMISOVALUM]	Not Active	Not Active	Not Active	Not Active					
CCCC1O[C@@H]2C[C@H]3[C@@H]4CCC5=CC(=O)C=C[C@]5(C)[C@H]4[C@@H](O)C[C@]3(C)[C@]2(C(=O)CO)O1 (some centres undefined) [BUDESONIDE]	Not Active	Not Active	Not Active	Not Active					
O=C(O)CCCc1ccc(N(CCCl)CCCl)cc1 [CHLORAMBUCIL]	Not Active	Not Active	Not Active	Not Active					
CN(C)CCCN1c2ccccc2Sc2ccc(Cl)cc21 [CHLORPROMAZINE]		Not Active			19.4	4.04	1840		
C[C@H](CCC(=O)O)[C@H]1CC[C@H]2[C@@H]3[C@H](O)C[C@@H]4C[C@H](O)CC[C@]4(C)[C@H]3C[C@H](O)[C@]12C [CHOLIC ACID]	Not Active	Not Active	Not Active	Not Active					
Cc1cc(C2CCCCC2)n(O)c(=O)c1 [CICLOPIROX]	Not Active	Not Active	Not Active	Not Active					
CC(C)(Oc1ccc(Cl)cc1)C(=O)O [CLOFIBRIC ACID]	Not Active	Not Active	Not Active	Not Active					
Clc1cccc(Cl)c1NC1=NCCN1 [CLONIDINE]	Not Active	Not Active		Not Active					
Cc1onc(-c2ccccc2Cl)c1C(=O)N[C@@H]1C(=O)N2[C@@H]1SC(C)(C)[C@@H]2C(=O)O [CLOXACILLIN]	Not Active	Not Active	Not Active	Not Active					
CC1CC(OC(=O)C(O)c2ccccc2)CC(C)(C)C1 (centres undefined) [CYCLANDELATE]	Not Active	Not Active	Not Active	Not Active					

SMILES	IC50 ([1]; insect cells)	IC50 [2]	IC50 ([3]; sf9)	IC50 [4]	IC50 ([1]; read-out: IC50) [µM]	IC50 ([4]; read-out: IC50) [µM]	Ki ([4]; read-out: Ki) [nM]	IC50 ([3]; read-out: IC50) [nM]	Ki ([3]; read-out: Ki) [nM]
Cc1c(O)c(=O)ccn1C [DEFERIPRONE]	Not Active	Not Active	Not Active	Not Active					
CC(=O)O[C@@]12CO[C@@H]1C[C@H](O)[C@@]1(C)C(=O)[C@H](O)C3=C(C)[C@@H](OC(=O)[C@H](O)[C@@H](NC(=O)OC(C)(C)C)c4ccccc4)C[C@@](O)([C@@H](OC(=O)c4ccccc4)[C@H]21)C3(C)C.O.O.O [DOCETAXEL]	Not Active	Not Active	Not Active	Not Active					
COc1cc2nc(N3CCN(C(=O)C4COc5ccccc5O4)CC3)nc(N)c2cc1OC (centres undefined) [DOXAZOSIN]	Not Active	Not Active	Not Active	Not Active					
C[C@H]1c2cccc(O)c2C(=O)C2=C(O)[C@]3(O)C(=O)C(C(N)=O)=C(O)[C@@H](N(C)C)[C@@H]3[C@@H](O)[C@@H]21.O [DOXYCYCLINE]	Not Active	Not Active	Not Active	Not Active					
O=C(CCCN1CC=C(n2c(=O)[nH]c3ccccc32)CC1)c1ccc(F)cc1 [DROPERIDOL]	Not Active	Not Active		Not Active				2960	1110
C[C@]12CC[C@@H]3c4ccc(O)cc4CC[C@H]3[C@@H]1CCC2=O [ESTRONE]	Not Active	Not Active	Not Active	Not Active					
OC(Cn1cncn1)(Cn1cncn1)c1ccc(F)cc1F [FLUCONAZOLE]	Not Active	Not Active	Not Active	Not Active					
CC(C)C(=O)Nc1ccc([N+](=O)[O-])c(C(F)(F)F)c1 [FLUTAMIDE]	Not Active	Not Active	Not Active	Not Active					
N=C(N)NCCN1CCCCCCC1 [GUANETHIDINE]	Not Active	Not Active	Not Active	Not Active					
CC1(C)O[C@@H]2C[C@H]3[C@@H]4CCC5=CC(=O)CC[C@]5(C)[C@@]4(F)[C@@H](O)C[C@]3(C)[C@]2(C(=O)CCl)O1 [HALCINONIDE]	Not Active	Not Active	Not Active	Not Active					
O=c1[nH]c(=O)n([C@H]2C[C@H](O)[C@@H](CO)O2)cc1I [IDOXURIDINE]	Not Active	Not Active	Not Active	Not Active					
CC1Cc2ccccc2N1NC(=O)c1ccc(Cl)c(S(N)(=O)=O)c1 (centres undefined) [INDAPAMIDE]	Not Active	Not Active	Not Active	Not Active					
Nc1nc(N)nc(-c2cc(Cl)ccc2Cl)n1.O=C(O)/C=C\C(=O)O [IRSOGLADINE MALEATE]	Not Active	Not Active	Not Active	Not Active					
CCC(C)n1ncn(-c2ccc(N3CCN(c4ccc(OCC5COC(Cn6cncn6)(c6ccc(Cl)cc6Cl)O5)cc4)CC3)cc2)c1=O (centres undefined) [ITRACONAZOLE]	Not Active	Not Active	Not Active	Not Active					
Sc1ncnc2nc[nH]c12 [MERCAPTOPURINE ANHYDROUS]	Not Active	Not Active	Not Active	Not Active					
C[C@](N)(Cc1ccc(O)c(O)c1)C(=O)O [METHYLDOPA]	Not Active	Not Active	Not Active	Not Active					
C[C@]12CCC(=O)C=C1CC[C@@H]1[C@@H]2CC[C@@]2(C)[C@H]1CC[C@]2(C)O [METHYLTESTOSTERONE]	Not Active	Not Active	Not Active	Not Active					
Cc1ccccc1N1C(=O)c2cc(S(N)(=O)=O)c(Cl)cc2NC1C (centres undefined) [METOLAZONE]	Not Active	Not Active	Not Active	Not Active					
COCCc1ccc(OCC(O)CNC(C)C)cc1 (centres undefined) [METOPROLOL]	Not Active	Not Active	Not Active	Not Active					
CCn1cc(C(=O)O)c(=O)c2cc(F)c(N3CCNCC3)cc21 [NORFLOXACIN]	Not Active	Not Active	Not Active	Not Active					
NC1=NC(=O)C(c2ccccc2)O1 (centres undefined) [PEMOLINE]	Not Active	Not Active	Not Active	Not Active					
Nc1nc2c(ncn2CCC(CO)CO)c(=O)[nH]1 [PENCICLOVIR]	Not Active	Not Active	Not Active	Not Active					
